Experimental data as given in patent US20220220450A1, “FABRICATION OF A BIOMIMETIC PLATFORM SYSTEM AND METHODS OF USE” (Cornell University Center for Technology Licensing, priority 2017, published 2022).

Legend:
MDA-MB231 cancer cells [1] = experiment: Doxorubicin response of cancer cells in 3D-collagen only biomimetic platform system; assay type: cell-based, human; conditions: 0.6% (w/v) collagen, 200,000 MDA-MB231 cells labelled with mCherry; 1-10 μM doxorubicin; FIG. 19B
Description: Images were analyzed by confocal microscopy.

adipocytes = experiment: Doxorubicin permeability of 3D-breast component biomimetic platform without cancer cells (BM only); assay type: cell-based, human; conditions: 0.6% (w/v) collagen, 15% v/v adipocytes, stromal cells, breast organoids, no cancer cells; increasing doxorubicin concentrations 0-10 μM; FIG. 19C
MDA-MB468 cancer cells = experiment: Doxorubicin response in 3D-breast component versus 3D-collagen only biomimetic platform system; assay type: cell-based, human; conditions: doxorubicin 0-10 μM, FIG. 20C
HS578T cancer cells = experiment: as above; assay type: cell-based, human; conditions: doxorubicin 0-10 μM, FIG. 21A-21D
MDA-MB231 cancer cells [2] = experiment: Doxorubicin response and uptake in 3D-breast component biomimetic platform system with cancer cells
Description: Lentivirus transfected human cell lines were selected for use in the biomimetic platform systems disclosed herein. Color selection was randomly assigned to ensure proper differentiation between cell types under fluorescent and confocal microscopy. […] Cancer cell lines, MDA-MB231, MDA-MB468, and HS-578T were transfected with mCherry lentivirus.
Surgical specimens were obtained. In a sterile biosafety hood, breast specimens were homogeneously minced. Excess lipid was carefully removed from tissue by suction, and minced tissue was mixed on a 1:1 ratio with complete Ham's media containing 1 mg/mL of collagenase Type I and 0.01 mg/mL hyaluronidase (for adipocytes and Adipose derived stem cell (ASC)-containing stromal vascular fraction (SVF) isolation) or 1 mg/mL of collagenase type IA and 0.01 mg/mL hyaluronidase (for isolation of breast organoids).
The total amount of 1×M199 media needed for collagen dilution during the neutralization process was reduced by 2504, to allow for the volume needed for reconstitution of cellular components that were added to neutralize collagen. The Collagen platform without breast components was fully diluted by adding 250 microliters of media with desired number of vascular cells (e.g., pericytes), while the biomimetic platform with breast components was diluted by adding 250 μL of MEGM media containing extracted organoids, SVF containing ASCs, and cancer cells. Components were mixed homogeneously into the neutralized collagen, and mature adipocytes were added to the biomimetic platform containing breast stroma at 15% v/v (v/v refers to the volume of the adipocytes+SVF over the total volume of the biocompatible substrate present in the biomimetic platform system described herein).
Biomimetic constructs were fixed in formaldehyde for 30 minutes followed by 3 consecutive 5-minute Phosphate Buffered Saline (PBS) washes. […] Images were analyzed by confocal microscopy. […]
Confocal images for doxorubicin response were analyzed using Imaris™ for visualization of 3D image volume. […]

[3] = 0.6% (w/v) collagen, 15% v/v adipocytes, stromal cells, breast organoids, 200,000 MDA-MB231 cells, 1-10 μM doxorubicin, FIG. 19A

Structure (SMILES): COc1cccc2c1C(=O)c1c(O)c3c(c(O)c1C2=O)C[C@@](O)(C(=O)CO)C[C@@H]3O[C@H]1C[C@H](N)[C@H](O)[C@H](C)O1 [doxorubicin]
- absolute number of cells (mCherry and DAPI signals) (MDA-MB231 cancer cells [1]): decrease in the absolute number of cells
- permeability of the biomimetic platform and adipocytes to doxorubicin (signal) (adipocytes): increased signal
- sensitivity of cancer cells to doxorubicin, 3D-breast component versus 3D-collagen only platform (MDA-MB468 cancer cells): decreased sensitivity
- sensitivity of cancer cells to doxorubicin, 3D-breast component versus 3D-collagen only platform (HS578T cancer cells): decreased sensitivity
- absolute number of cells (mCherry and DAPI signals) (MDA-MB231 cancer cells [2]; [3]): decrease in the absolute number of cells
- doxorubicin uptake (intrinsic fluorescence signal) (MDA-MB231 cancer cells [2]; [3]): uptake was increased
- sensitivity of cancer cells to doxorubicin, 3D-breast component versus 3D-collagen only platform (MDA-MB231 cancer cells [2]; MDA-MB231, doxorubicin 0-10 μM, FIG. 20A-20B): decreased sensitivity
